The test system of data set [1] is LNCaP cells. Kind of data set: Internalization into LNCaP cells, relative to ([125I]I-BA)KuE. In kind it is cell-based. On the procedure:
Data is corrected for non-specific binding ([…]) and expressed as mean±SD (n=3).
Subsequent to the removal of the culture medium, the cells were washed once with 500 μL DMEM-F12 (5% BSA) and left to equilibrate for at least 15 min at 37° C. in 200 μL DMEM-F12 (5% BSA). Each well was treated with either 25 μL of either DMEM-F12 (5% BSA) or a 100 μM PMPA solution for blockade. Next, 25 μL of the ^68Ga/^18F-labeled PSMA inhibitor (5.0 nM) was added and the cells incubated at 37° C. for 60 min. The experiment was terminated by placing the 24-well plate on ice for 3 min and consecutive removal of the medium. Each well was rinsed with 250 μL HBSS and the fractions from these first two steps combined, representing the amount of free radioligand. Removal of surface bound activity was accomplished by incubation of the cells with 250 μL of ice-cold PMPA (10 μM in PBS) solution for 5 min and rinsed again with another 250 μL of ice-cold PBS. The internalized activity was determined by incubation of the cells in 250 μL 1 M NaOH and the combination with the fraction of a subsequent wash step with 250 μL 1.0 M NaOH. Each experiment (control and bloackde) was performed in triplicate. Free, surface bound and internalized activity was quantified in a γ-counter. […] Data were corrected for non-specific internalization and normalized to the specific-internalization observed for the radioiodinated reference compound.

Data set [2] is described as follows: In vivo distribution of rhPSMA-7 isomers after rhPSMA7-rac: radio-HPLC and radio-TLC of blood, organ and urine samples. Further details: species or system mice. On the procedure: In order to quantify the relative uptake of each isomer (rhPSMA-7.1-7.4), a tumor-bearing male CB-17-SCID mouse was injected with the racemic mixture of rhPSMA-7 (180-280 MBq, SA=247-349 GBq/μmol, produced at the Klinikum rechts der Isar in a fully automated procedure). The animal was left under anesthesia for 30 min and sacrificed. Urine, blood, liver, kidneys and tumor were collected and processed to the hereafter described procedures. The urine sample was centrifuged for 5 min at 9000 rpm to yield a clear solution and directly subjected to radio-HPLC analysis. Blood was diluted to 1 mL with H2O and centrifuged twice at 13000 g for 5 min. The supernatant was collected and loaded on a Strata X cartridge (33 μm Polymeric Reversed Phase 500 mg, pre-conditioned with 5 mL MeOH, followed by 5 mL H2O). After washing with 5 mL H2O, the cartridge was eluted with a 6:4 mixture (v/v) of MeCN in H2O, supplemented with 1% TFA. The eluate was diluted with water and analysed by radio-HPLC. Tumour, kidneys and liver were homogenised using either a Potter-Elvehjem tissue grinder (Kontes Glass Co, Vineland, USA) or a MM-400 ball mill (Retsch GmbH, Haan, Germany).
Tumour and kidneys were separately homogenised in the tissue homogeniser with 1 mL of extraction buffer (850 μL 1 M HEPES pH7.4, 100 μL20 mM PMPA and 100 μL 1M NaCl) for 30 min. The resulting homogenate was collected and centrifuged at 13000 g for 5 min. Subsequently the supernatant was collected, centrifuged again (13000 g, 5 min) and loaded on a Strata X cartridge (33 μm Polymeric Reversed Phase 500 mg, pre-conditioned with 5 mL MeOH, followed by 5 mL H2O). After washing with 5 mL H2O, the cartridge was eluted with a 6:4 mixture (v/v) of MeCN in H2O, supplemented with 1% TFA. The eluate of each organ was diluted with water and analysed by radio-HPLC.
The organs (tumour, kidney, liver) were separately homogenised in a 2 mL tube together with 3 grinding balls (3 mm diameter) and 1 mL of extraction buffer (850 μL 1 M HEPES pH7.4, 100 μL 20 mM PMPA and 100 μL 1M NaCl) for 10 min at 30 Hz. The homogenate was centrifuged at 13000 g for 5 min and the supernatant was collected. Subsequently, the pellet was suspended in 1 mL of extraction buffer and homogenized again with the ball mill for 10 min at 30 Hz. After centrifugation (13000 g, 5 min), both supernatants were combined and loaded on a Strata X cartridge (33 μm Polymeric Reversed Phase 500 mg, pre-conditioned with 5 mL MeOH, followed by 5 mL H2O). After washing with 5 mL H2O, the cartridge was eluted with a 6:4 mixture (v/v) of MeCN in H2O, supplemented with 1% TFA. The eluate of each organ was diluted with water and analysed by radio-HPLC. […] Finally the ratios of the individual isomers were determined from the HPLC profiles of the extracted samples and compared to the ratios of the isomers from the quality control of the racemic mixture of rhPSMA-7. The decay corrected extraction- and cartridge loading-efficiency, as well as the overall extracted activity of the examined samples are given in table 2. The cartridge elution-efficiency was >99% for all experiments.
Radio-TLC Analysis was carried out a) on urine samples by directly subjecting a small volume onto a TLC strip, b) by analysis of a small volume of the non-immobilized activity during the SPE process (the ‘breakthrough fraction’), and c) by analysis of a small volume of the cartridge eluates.

[3] abbreviates: Phosphoimager, Blood, 30 min p.i.
Setting [4] is: Phosphoimager, Kidney, 30 min p.i.
[5] abbreviates: Phosphoimager, Tumor, 30 min p.i.
[6] abbreviates: Phosphoimager, Urine, 30 min p.i., listed as [^18F]rhPSMA7-rac.
Setting [7] is: TLC Scanner, Kidney, tumor bearing mice 30 min p.i., listed as [^18F]rhPSMA7-rac.

Where “and” joins values, the source holds several entries; their conditions need not be identical. Equal entries are not always repeated. Marks after values point to notes of the source that are not given here.

For the compound `CC(C)(C)[Si](F)(c1ccc(C(=O)NC[C@@H](NC(=O)CC[C@@H](C(=O)O)N2CCN(CC(=O)O)CCN(CC(=O)O)CCN(CC(=O)O)CC2)C(=O)N[C@H](CCCCNC(=O)CCC(=O)NCCC[C@@H](NC(=O)CC[C@H](NC(=O)N[C@@H](CCC(=O)O)C(=O)O)C(=O)O)C(=O)O)C(=O)O)cc1)C(C)(C)C` [rhPSMA7.3, [^19F][^natGa]D-Dap-S-DOTAGA-rhPSMA7, metal not drawn], in data set [1] (LNCaP cells, 1 h, 37 °C, c=0.5 nM, mean), the “internalization rate Mean” value is 161.41 % of [^125I]IB-KuE. For the same compound, the individual internalization rates in data set [1] (LNCaP cells, 1 h, 37 °C, c=0.5 nM, single measurements) was 156.6 % of [^125I]IB-KuE and 156.0 % of [^125I]IB-KuE and 171.7 % of [^125I]IB-KuE. Besides, the internalization in data set [1] (mean ± SD as quoted in the discussion) is on record as 161.41%±8.88.
For the compound “[^19F][^natGa]D/L-Dap-R/S-DOTAGA-rhPSMA7 [rhPSMA7-rac]”, the Intact tracer in data set [2] (setting [3]) is 96.80^ %; in data set [2] (setting [4]), 96.48^ %; in data set [2] (Phosphoimager, Liver, 30 min p.i., listed as [^18F]rhPSMA7-rac) it was 93.92^# % and 74.15^# %; in data set [2] (setting [5]), 96.47^ %; in data set [2] (setting [6]), 98.55^ % and 95.85^ %; in data set [2] (setting [7]), 94.04% and 94.58%. For the same compound, the Intact tracer in data set [2] (TLC Scanner, Urine, tumor bearing mice 30 min p.i., listed as [^18F]rhPSMA7-rac) was 82.51% and 96.2%. The “^18F-Fluoride” value in data set [2] (setting [3]) is 3.20^ %; in data set [2] (setting [4]), 3.52^ %; in data set [2] (setting [5]) it was 4.15^ %; in data set [2] (setting [6]), 1.55^ % and 4.15^ %; in data set [2] (setting [7]), 5.96% and 5.42%.

Source of the values: patent US12377176B2, “Cancer diagnostic imaging agents” (Technische Universität München, priority 2019, dated 2025).
